Measured values: patent US20230277519A1, “IRAK4 DEGRADERS AND USES THEREOF” (Kymera Therapeutics, Inc., priority 2022, published 2023)

What was measured:
IRAK4 [1] = molecular target: T1, IRAK4 (Homo sapiens, UniProt Q9NWZ3); assay: IRAK4 degradation in blood by PBMC FLOW (Phase 1a); type: in vivo; conditions: patients with R/R B-cell NHL, IV, DL1 and DL2, PBMC FLOW
T1 construct: from tissue; host or cells: tumor tissue of R/R B-cell NHL patients
T1 sequence (Q9NWZ3 1-460): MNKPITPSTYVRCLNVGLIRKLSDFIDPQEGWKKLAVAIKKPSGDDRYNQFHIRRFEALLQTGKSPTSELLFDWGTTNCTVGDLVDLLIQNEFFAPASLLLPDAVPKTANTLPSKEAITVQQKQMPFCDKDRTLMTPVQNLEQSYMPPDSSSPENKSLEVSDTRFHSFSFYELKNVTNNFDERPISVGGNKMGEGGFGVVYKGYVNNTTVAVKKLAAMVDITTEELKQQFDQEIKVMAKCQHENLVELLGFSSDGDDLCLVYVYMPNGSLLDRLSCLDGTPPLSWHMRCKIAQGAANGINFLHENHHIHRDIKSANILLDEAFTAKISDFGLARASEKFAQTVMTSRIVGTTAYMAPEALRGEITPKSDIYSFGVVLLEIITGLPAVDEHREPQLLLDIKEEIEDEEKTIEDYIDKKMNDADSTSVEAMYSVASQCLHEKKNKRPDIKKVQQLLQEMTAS
Experimental: (§1) In some embodiments, the present disclosure provides a method of administering Compound A to a patient in need thereof, comprising administering to said patient a therapeutically effective amount of Compound A or a pharmaceutically acceptable salt thereof (e.g., in a liquid formulation or a unit dose form as described herein), wherein great than 30%, 40%, 50%, 60%, 70%, 80%, or 90% of IRAK4 degradation in blood or tumor is achieved (e.g., by measuring, at 48 hours post-administration, IRAK4 levels using mass spectrometry or lymphocytes and monocytes using flow cytometry).
(§2) Patients who provide informed consent and meet the eligibility criteria for the study will be enrolled and treated with Compound A administered intravenously (IV) on Day 1 of a 21-day schedule (Schedule 1). An alternative schedule of Compound A administered IV on Day 1 and Day 2 of a 21-day schedule (Schedule 2) may also be evaluated based on emerging pharmacokinetic, pharmacodynamic, and safety data observed in Schedule 1. If Schedule 2 is investigated, the first dose level will represent a split dose of the highest dose previously determined to be tolerable in Schedule 1 with the total dose administered in Schedule 2 being equivalent to the total dose administered in Schedule 1. Subsequent dose levels for Schedule 2 will follow the same dose escalation scheme as described for Schedule 1. […]

Ikaros [2] = molecular target: T2, Ikaros (Homo sapiens, UniProt Q13422); assay: Ikaros degradation in blood by PBMC FLOW (Phase 1a); type: in vivo; conditions: patients with R/R B-cell NHL, IV, DL1 and DL2, PBMC FLOW
T2 construct: from tissue; host or cells: tumor tissue of R/R B-cell NHL patients
T2 sequence (Q13422 whole entry): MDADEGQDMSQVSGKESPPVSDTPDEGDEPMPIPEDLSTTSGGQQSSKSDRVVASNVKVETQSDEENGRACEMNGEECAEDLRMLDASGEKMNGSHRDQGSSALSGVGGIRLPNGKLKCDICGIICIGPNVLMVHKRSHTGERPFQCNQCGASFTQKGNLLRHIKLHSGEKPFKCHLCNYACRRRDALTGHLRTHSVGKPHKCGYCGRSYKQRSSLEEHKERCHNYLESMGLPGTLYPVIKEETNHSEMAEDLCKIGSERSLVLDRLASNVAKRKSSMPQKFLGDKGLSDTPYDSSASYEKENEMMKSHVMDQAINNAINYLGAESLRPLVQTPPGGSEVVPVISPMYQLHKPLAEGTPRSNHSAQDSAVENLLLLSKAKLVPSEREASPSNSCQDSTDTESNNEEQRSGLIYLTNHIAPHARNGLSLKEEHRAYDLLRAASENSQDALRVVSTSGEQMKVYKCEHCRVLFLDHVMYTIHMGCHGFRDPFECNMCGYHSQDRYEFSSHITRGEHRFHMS
Experimental: as §1, with “greater” for “great”, “than” for “than 30%,”, “Ikaros” for “IRAK4”
as §2

Aiolos [3] = molecular target: T3, Aiolos (Homo sapiens, UniProt Q9UKT9); assay: Aiolos degradation in blood by PBMC FLOW (Phase 1a); type: in vivo; conditions: patients with R/R B-cell NHL, IV, DL1 and DL2, PBMC FLOW
T3 construct: from tissue; host or cells: tumor tissue of R/R B-cell NHL patients
T3 sequence (Q9UKT9 whole entry): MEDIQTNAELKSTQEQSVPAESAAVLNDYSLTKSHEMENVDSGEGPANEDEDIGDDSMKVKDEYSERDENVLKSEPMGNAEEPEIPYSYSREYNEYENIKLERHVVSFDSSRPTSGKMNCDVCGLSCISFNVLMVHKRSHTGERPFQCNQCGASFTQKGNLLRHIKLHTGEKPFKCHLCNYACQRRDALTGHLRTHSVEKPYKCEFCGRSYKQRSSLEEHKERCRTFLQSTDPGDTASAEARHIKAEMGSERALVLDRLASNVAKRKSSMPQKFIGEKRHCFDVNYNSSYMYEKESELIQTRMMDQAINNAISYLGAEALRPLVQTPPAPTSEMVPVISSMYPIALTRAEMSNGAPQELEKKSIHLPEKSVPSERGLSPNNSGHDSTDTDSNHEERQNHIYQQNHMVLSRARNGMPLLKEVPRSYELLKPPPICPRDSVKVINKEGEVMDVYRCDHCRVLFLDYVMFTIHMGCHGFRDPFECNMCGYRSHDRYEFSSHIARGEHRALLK
Experimental: as §1, with “greater” for “great”, “than” for “than 30%, 40%, 50%,”, “Aiolos” for “IRAK4”
as §2

IRAK4 [4] = molecular target: T1, IRAK4; assay: IRAK4 degradation in tumor by targeted MS (Phase 1a); type: in vivo; conditions: patients, IV, DL1, targeted MS
Experimental: as §1, §2

Ikaros [5] = molecular target: T2, Ikaros; assay: Ikaros degradation in tumor by targeted MS (Phase 1a); type: in vivo; conditions: patients, IV, DL1, targeted MS
Experimental: as §1, with “greater” for “great”, “than” for “than 30%,”, “Ikaros” for “IRAK4”
as §2

Aiolos [6] = molecular target: T3, Aiolos; assay: Aiolos degradation in tumor by targeted MS (Phase 1a); type: in vivo; conditions: patients, IV, DL1, targeted MS
Experimental: as §1, with “greater” for “great”, “than” for “than 30%, 40%, 50%,”, “Aiolos” for “IRAK4”
as §2

[7] = Plasma concentration and PK in patients (Phase 1a); type: in vivo, human; conditions: IV, DL1 and DL2, plasma
Description: (§3) Patients who provide informed consent and meet the eligibility criteria for the study will be enrolled and treated with Compound A administered intravenously (IV) on Day 1 of a 21-day schedule (Schedule 1). An alternative schedule of Compound A administered IV on Day 1 and Day 2 of a 21-day schedule (Schedule 2) may also be evaluated based on emerging pharmacokinetic, pharmacodynamic, and safety data observed in Schedule 1. If Schedule 2 is investigated, the first dose level will represent a split dose of the highest dose previously determined to be tolerable in Schedule 1 with the total dose administered in Schedule 2 being equivalent to the total dose administered in Schedule 1. Subsequent dose levels for Schedule 2 will follow the same dose escalation scheme as described for Schedule 1. If the sponsor and investigators determine that, based on the observed safety, PK, preliminary efficacy, and/or the PD profile, Schedule 2 may not be beneficial to patients, then the study will proceed immediately to Phase 1b after the Schedule 1 MTD/RP2D is determined and Schedule 2 may not be evaluated. • Schedule 1: Dose D1 on a 21-day schedule • Schedule 2: Dose D1, D2 on a 21-day schedule

[8] = system: IRAK4, Ikaros, and Aiolos; assay: Duration of target degradation in patients (Phase 1a); type: in vivo, human; conditions: once every three-week dosing
Description: as §3

For `CC(C)(O)c1cc2nc([C@H]3CC[C@H](CN4CC5(CC(CCNc6cccc7c6C(=O)N(C6CCC(=O)NC6=O)C7=O)C5)C4)CC3)sc2cc1NC(=O)c1cccc(C(F)(F)F)n1` (some centres unmarked) [Compound A], which “IRAK4 degradation in PBMC” value (IRAK4 [1]) is on record?
Its value is “Up to 40%”.

And the “KD of Ikaros in PBMC” value (Ikaros [2])?
Its value is no more than 95%.

What about the “KD of Aiolos in PBMC” value (Aiolos [3]) of the same compound?
Its value is no more than 95%.

What about the “IRAK4 KD in tumor” value (IRAK4 [4]) of the same compound?
Its value is 27%.

And the “Ikaros KD in tumor” value (Ikaros [5])?
Its value is 40-66%.

And the “Aiolos KD in tumor” value (Aiolos [6])?
Its value is 40-66%.

What about the “Exposure (plasma concentration and PK)” value [7] of the same compound?
The value was “dose-proportional increase in exposure”.

And the “Duration of target degradation” value [8]?
The value was “At least 72 h”.
